Measured values reported in ChEMBL document CHEMBL1201862, “PubChem BioAssay data set” (2004).
The source made the active and inactive calls.

Experiments:
Coagulation factor XII = target: T1, Coagulation factor XII (Homo sapiens, UniProt P00748); assay: FXIIa inhibitor potency, concentration-response, biochemical (AID 716); type: functional
T1 sequence (P00748 whole entry): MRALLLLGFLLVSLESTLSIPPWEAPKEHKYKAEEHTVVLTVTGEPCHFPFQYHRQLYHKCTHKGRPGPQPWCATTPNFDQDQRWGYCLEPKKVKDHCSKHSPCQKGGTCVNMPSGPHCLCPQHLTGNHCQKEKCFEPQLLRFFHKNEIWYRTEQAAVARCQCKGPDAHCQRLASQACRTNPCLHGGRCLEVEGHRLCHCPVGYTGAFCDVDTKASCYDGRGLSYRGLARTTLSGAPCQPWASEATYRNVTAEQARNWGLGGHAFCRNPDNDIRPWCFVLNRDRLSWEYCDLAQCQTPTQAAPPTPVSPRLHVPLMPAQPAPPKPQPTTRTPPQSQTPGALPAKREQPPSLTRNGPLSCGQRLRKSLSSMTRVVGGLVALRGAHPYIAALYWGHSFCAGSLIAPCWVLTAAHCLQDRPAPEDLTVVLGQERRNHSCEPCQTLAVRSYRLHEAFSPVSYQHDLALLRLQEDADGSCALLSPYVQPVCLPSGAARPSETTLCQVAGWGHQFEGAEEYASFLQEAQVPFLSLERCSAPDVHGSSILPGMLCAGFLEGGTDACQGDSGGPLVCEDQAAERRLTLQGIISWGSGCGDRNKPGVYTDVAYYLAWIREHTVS

[1] = target: T2, E3 ubiquitin-protein ligase XIAP (Homo sapiens, UniProt P98170); assay: SAR analysis of Antagonists of IAP-family anti-apoptotic proteins. [Related pubchem assays (depositor defined):AID1018, AID1449, AID1513, AID1514, AID1638]
[2] = target: T2, E3 ubiquitin-protein ligase XIAP; assay: SAR analysis of Antagonists of XIAP-Bir3 domain of IAP-family anti-apoptotic proteins. [Related pubchem assays (depositor defined):AID1018, AID1449, AID1513, AID1514, AID1638]
[3] = target: T3, Intestinal-type alkaline phosphatase (Homo sapiens, UniProt P09923); assay: inhibition of human intestinal alkaline phosphatase – biochemical, dose response (AID 488876); type: functional
[4] = target: Intestinal-type alkaline phosphatase (Mus musculus, UniProt P24822); assay: PubChem AID 488785; type: functional
[5] = target: T4, Histone-lysine N-methyltransferase NSD2 (Homo sapiens, UniProt O96028); type: biochemical
T4 sequence (O96028 whole entry): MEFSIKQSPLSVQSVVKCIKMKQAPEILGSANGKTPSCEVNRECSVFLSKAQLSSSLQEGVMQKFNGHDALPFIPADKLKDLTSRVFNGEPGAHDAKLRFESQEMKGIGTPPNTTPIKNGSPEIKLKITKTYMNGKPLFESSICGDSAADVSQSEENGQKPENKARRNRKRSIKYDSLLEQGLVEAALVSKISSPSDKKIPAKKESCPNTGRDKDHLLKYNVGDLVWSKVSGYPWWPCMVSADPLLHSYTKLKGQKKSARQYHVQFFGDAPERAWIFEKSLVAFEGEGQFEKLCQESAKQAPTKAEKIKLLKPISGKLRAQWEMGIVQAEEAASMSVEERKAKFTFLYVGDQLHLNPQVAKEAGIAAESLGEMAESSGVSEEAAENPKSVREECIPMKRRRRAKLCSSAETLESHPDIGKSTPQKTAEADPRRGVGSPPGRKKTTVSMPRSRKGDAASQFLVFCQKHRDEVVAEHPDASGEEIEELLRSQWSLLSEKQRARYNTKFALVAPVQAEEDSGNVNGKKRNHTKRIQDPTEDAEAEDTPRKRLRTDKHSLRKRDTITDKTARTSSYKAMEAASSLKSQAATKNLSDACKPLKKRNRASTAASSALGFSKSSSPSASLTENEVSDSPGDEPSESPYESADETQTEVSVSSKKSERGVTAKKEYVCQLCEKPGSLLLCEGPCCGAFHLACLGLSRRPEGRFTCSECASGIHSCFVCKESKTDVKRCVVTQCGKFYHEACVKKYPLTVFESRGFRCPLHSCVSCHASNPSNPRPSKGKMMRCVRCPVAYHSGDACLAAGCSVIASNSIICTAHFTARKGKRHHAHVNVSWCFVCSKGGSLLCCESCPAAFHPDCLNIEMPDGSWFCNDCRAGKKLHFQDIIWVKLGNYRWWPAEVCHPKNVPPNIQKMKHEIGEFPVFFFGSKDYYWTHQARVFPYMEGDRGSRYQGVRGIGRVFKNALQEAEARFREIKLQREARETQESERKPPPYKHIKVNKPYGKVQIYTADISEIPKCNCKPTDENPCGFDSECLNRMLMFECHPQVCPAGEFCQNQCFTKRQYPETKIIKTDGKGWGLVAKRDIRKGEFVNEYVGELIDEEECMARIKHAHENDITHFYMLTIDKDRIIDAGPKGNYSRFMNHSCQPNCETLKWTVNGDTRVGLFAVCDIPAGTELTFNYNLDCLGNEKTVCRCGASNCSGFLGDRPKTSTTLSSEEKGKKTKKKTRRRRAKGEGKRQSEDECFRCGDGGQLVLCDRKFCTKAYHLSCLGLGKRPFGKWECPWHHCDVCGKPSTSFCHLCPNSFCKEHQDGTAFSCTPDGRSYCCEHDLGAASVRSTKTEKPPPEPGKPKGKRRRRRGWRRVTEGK

[6] = target: T5, Alkaline phosphatase, tissue-nonspecific isozyme (Homo sapiens, UniProt P05186); assay: TNAP enzyme inhibition by screening hits, dose response, selectivity assay for mouse IAP inhibitor project, biochemical, human TNAP, uHTS hits (AID 488906); type: functional
T5 sequence (P05186 whole entry): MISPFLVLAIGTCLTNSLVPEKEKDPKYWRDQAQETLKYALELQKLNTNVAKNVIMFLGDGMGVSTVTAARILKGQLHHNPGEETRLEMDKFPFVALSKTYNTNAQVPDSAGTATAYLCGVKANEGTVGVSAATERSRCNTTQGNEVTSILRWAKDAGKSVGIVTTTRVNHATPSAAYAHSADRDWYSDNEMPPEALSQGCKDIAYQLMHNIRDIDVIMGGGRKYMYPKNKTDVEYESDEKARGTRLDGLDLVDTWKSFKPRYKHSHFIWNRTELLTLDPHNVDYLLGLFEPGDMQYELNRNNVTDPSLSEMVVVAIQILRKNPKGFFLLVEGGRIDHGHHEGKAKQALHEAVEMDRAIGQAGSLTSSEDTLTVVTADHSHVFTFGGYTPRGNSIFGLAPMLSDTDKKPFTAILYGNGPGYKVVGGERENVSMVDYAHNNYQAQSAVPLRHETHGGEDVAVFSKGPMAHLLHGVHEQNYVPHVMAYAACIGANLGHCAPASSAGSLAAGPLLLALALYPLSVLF

Aminopeptidase N = target: T6, Aminopeptidase N (Plasmodium falciparum FcB1/Columbia, UniProt O96935); assay: P. falciparum M1AAP inhibitors, biochemical, fluorogenic H-Leu-NHMec substrate, 1536-well (AID 1445); parameters: species or system Plasmodium falciparum 3D7, 3D7
T6 sequence (O96935 whole entry): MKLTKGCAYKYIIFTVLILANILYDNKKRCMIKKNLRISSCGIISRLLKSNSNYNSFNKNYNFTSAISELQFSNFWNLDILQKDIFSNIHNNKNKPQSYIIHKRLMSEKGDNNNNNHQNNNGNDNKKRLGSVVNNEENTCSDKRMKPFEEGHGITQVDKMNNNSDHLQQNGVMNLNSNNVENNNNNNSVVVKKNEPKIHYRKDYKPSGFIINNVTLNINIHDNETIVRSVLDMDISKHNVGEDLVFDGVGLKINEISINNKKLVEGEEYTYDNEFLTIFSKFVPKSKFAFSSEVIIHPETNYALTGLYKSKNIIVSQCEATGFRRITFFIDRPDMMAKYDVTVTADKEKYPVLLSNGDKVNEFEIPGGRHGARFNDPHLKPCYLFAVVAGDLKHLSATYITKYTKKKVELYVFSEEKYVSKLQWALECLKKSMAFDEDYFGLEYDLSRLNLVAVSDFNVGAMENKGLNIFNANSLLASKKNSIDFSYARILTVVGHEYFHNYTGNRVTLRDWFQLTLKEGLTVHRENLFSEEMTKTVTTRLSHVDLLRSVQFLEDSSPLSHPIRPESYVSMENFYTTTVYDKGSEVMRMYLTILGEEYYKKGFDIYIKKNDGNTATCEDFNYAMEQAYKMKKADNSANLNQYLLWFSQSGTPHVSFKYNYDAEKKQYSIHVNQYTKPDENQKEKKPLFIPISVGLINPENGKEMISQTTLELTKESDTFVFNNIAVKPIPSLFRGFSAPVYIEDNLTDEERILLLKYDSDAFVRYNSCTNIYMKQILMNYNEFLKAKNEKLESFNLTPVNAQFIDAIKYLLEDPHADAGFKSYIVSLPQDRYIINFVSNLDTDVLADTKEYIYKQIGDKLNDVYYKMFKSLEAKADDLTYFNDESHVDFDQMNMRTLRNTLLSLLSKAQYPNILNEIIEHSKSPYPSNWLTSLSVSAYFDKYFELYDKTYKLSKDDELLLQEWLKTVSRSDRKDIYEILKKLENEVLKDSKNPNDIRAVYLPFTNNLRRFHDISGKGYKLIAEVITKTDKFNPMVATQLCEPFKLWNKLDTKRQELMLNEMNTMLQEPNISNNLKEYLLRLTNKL

SUMO-activating enzyme [7] = target: T7, SUMO-activating enzyme (Homo sapiens, UniProt Q9UBT2); assay: inhibitors of in vitro SUMOylation cascade, primary screen, biochemical, HTRF, uHTS (AID 2006); type: protein-complex assay
Genome polyprotein = Genome polyprotein (dengue virus type 2, UniProt P29990); assay: Dengue-2 NS5 methyltransferase inhibitors, primary screen, biochemical, confirmation dose response (AID 588689); type: functional
SUMO-activating enzyme [8] = target: T7, SUMO-activating enzyme; assay: SUMOylation inhibitor hit validation, confirmation, SUMOylation inhibitor project, biochemical, AlphaScreen (AID 2018); type: functional
Aspartyl aminopeptidase = target: T8, Aspartyl aminopeptidase (Plasmodium falciparum 3D7, UniProt Q8I2J3); assay: Counterscreen for inhibitors of M1 and M17 aminopeptidases: QFRET-based biochemical high throughput dose response assay for inhibitors of the Plasmodium falciparum M18 Aspartyl Aminopeptidase (PFM18AAP). [Related PubChem assays: 1619 (Screening assay (M17LAP inhibitors).), 1445 (Screening assay (M1AAP inhibitors).)]
T8 sequence (Q8I2J3 whole entry): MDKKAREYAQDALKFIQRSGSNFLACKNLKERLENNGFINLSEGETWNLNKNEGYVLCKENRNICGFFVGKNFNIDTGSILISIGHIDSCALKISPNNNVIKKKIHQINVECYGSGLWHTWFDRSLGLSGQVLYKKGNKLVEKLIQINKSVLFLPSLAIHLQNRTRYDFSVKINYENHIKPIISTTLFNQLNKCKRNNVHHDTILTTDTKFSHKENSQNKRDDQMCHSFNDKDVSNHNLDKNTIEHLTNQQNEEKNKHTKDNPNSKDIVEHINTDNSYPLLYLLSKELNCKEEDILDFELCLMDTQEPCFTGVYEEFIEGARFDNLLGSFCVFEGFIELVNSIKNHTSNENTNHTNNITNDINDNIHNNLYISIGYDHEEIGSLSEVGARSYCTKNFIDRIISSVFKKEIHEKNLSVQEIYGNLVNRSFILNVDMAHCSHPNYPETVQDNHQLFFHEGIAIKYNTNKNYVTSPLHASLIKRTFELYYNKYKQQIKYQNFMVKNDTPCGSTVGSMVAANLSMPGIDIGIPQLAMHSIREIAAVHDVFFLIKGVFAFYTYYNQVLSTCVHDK

Procathepsin L = Procathepsin L (Homo sapiens, UniProt P07711); assay: cathepsin L inhibitors, dose response, counter-screen for M1/M17 aminopeptidase inhibitor project, biochemical, QFRET, 1536-well (AID 2214)
[9] = target: T3, Intestinal-type alkaline phosphatase; assay: human intestinal alkaline phosphatase activators, dose response, biochemical, luminescence, uHTS hits (AID 463120); type: functional
[10] = insulin promoter down-regulators in MIN6 cells, imaging, high-content screening, mouse beta cells (AID 1628); type: functional
[11] = cytotoxicity in MIN6 insulinoma cells, dose response, cytotoxicity control, cell-based, mouse insulinoma (AID 2122); type: functional;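 note: confirmatory high-throughput counterscreen run to flag cytotoxic compounds; mouse MIN-6 beta cells carrying an insulin promoter eGFP reporter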
[12] = target: T5, Alkaline phosphatase, tissue-nonspecific isozyme; assay: human TNAP enzyme inhibitors, SAR follow-up, biochemical, luminescent, dose response (AID 1056)
[13] = target: Alkaline phosphatase, placental type (Homo sapiens, UniProt P05187); assay: PLAP enzyme inhibitors, confirmation, biochemical, luminescence (AID 1512); type: functional
Alkaline phosphatase, placental type, sequence (P05187 whole entry): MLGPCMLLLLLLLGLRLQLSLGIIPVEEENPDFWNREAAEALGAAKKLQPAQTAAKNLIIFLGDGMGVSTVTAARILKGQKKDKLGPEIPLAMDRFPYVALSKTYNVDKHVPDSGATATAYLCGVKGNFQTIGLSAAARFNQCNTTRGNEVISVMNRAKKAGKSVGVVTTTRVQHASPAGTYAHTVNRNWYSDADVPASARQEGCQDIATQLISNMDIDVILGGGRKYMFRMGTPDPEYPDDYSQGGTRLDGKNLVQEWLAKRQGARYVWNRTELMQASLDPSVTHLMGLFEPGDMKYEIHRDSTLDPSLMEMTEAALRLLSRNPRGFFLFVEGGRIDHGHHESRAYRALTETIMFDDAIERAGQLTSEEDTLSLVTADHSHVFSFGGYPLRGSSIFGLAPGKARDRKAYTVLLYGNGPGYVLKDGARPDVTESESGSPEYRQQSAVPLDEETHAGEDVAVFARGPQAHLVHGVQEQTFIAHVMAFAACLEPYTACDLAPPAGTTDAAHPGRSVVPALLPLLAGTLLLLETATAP

T2 sequence (P98170 whole entry, the tested form may be a part): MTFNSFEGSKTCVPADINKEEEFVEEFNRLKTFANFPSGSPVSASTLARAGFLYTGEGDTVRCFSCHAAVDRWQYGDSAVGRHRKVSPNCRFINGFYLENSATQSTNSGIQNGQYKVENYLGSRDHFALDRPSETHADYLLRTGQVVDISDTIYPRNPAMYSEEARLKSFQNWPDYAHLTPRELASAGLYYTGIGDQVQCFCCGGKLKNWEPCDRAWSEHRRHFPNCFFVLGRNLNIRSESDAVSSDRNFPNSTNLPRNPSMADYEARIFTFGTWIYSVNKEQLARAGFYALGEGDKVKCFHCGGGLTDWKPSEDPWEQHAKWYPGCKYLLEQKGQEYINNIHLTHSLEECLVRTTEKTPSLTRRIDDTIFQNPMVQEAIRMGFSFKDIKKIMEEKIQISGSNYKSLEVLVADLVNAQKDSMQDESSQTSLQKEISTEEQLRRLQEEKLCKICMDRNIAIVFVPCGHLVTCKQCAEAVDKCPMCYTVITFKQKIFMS
T7 sequence (Q9UBE0 whole entry): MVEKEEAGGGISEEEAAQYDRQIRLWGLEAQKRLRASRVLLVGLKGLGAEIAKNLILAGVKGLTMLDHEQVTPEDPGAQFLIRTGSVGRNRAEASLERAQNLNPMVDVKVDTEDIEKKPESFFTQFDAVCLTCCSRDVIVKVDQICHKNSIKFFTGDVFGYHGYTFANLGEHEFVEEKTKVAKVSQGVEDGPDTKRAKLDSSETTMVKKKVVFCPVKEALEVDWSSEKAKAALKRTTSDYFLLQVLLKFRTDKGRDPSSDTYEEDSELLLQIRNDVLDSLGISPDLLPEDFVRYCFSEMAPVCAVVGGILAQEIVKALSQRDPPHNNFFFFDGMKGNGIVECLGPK
T7 sequence (Q9UBT2 whole entry): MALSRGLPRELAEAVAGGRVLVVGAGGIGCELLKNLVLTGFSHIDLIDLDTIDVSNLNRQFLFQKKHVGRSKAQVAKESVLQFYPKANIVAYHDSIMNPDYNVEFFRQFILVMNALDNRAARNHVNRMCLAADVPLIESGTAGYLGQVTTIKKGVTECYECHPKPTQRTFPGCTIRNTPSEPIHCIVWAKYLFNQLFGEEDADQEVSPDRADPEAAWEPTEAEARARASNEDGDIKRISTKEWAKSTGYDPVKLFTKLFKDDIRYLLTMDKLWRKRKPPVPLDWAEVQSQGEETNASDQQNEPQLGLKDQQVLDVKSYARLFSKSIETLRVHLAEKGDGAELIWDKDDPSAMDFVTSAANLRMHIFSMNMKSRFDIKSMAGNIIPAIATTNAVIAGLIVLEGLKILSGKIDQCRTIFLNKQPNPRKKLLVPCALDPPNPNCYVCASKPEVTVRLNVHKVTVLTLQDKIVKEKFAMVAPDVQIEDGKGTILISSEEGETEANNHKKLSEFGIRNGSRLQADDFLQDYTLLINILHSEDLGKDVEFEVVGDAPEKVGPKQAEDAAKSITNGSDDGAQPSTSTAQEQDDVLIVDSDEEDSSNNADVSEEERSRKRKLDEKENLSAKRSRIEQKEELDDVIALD
T3 sequence (P09923 whole entry): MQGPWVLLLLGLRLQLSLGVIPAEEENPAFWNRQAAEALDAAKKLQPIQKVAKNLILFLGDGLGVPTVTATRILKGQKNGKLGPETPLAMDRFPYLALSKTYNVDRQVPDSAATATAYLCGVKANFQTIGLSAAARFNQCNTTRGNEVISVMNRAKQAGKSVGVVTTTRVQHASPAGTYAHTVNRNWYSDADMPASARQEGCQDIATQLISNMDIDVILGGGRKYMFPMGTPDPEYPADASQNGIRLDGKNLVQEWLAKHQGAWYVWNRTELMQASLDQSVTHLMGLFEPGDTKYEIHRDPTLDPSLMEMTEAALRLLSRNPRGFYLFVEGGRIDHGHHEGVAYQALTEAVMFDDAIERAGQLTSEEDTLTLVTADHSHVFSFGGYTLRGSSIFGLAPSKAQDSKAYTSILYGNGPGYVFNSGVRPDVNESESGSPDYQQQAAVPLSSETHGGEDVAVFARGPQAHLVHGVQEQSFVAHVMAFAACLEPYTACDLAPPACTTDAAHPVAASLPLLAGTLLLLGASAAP
Intestinal-type alkaline phosphatase (Mus musculus, UniProt P24822), sequence (P24822 whole entry): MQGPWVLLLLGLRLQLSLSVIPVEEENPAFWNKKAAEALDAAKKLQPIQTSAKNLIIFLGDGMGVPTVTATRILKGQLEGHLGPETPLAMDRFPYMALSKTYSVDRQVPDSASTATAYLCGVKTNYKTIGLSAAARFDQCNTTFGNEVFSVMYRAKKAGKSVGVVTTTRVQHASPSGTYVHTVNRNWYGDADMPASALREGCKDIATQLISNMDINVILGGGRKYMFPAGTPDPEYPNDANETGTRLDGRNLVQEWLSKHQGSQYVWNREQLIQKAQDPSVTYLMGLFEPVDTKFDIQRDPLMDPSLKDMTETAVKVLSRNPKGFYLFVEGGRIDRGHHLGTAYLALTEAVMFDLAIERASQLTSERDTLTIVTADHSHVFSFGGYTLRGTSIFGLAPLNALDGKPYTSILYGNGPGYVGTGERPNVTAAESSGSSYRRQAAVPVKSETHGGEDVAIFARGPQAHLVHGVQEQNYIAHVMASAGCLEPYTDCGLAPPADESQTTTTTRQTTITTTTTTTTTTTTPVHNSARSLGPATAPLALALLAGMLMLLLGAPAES
Procathepsin L, sequence (P07711 whole entry): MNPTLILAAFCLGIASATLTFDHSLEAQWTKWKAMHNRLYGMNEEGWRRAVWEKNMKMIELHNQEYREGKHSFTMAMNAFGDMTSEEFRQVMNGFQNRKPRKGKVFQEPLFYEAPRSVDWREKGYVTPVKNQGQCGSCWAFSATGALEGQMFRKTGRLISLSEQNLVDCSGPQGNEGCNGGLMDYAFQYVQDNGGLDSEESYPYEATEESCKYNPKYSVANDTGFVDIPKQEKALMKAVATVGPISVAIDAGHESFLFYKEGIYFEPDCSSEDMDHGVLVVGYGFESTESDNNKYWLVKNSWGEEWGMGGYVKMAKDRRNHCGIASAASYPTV
Genome polyprotein, sequence (P29990 2492-3391 limits assumed): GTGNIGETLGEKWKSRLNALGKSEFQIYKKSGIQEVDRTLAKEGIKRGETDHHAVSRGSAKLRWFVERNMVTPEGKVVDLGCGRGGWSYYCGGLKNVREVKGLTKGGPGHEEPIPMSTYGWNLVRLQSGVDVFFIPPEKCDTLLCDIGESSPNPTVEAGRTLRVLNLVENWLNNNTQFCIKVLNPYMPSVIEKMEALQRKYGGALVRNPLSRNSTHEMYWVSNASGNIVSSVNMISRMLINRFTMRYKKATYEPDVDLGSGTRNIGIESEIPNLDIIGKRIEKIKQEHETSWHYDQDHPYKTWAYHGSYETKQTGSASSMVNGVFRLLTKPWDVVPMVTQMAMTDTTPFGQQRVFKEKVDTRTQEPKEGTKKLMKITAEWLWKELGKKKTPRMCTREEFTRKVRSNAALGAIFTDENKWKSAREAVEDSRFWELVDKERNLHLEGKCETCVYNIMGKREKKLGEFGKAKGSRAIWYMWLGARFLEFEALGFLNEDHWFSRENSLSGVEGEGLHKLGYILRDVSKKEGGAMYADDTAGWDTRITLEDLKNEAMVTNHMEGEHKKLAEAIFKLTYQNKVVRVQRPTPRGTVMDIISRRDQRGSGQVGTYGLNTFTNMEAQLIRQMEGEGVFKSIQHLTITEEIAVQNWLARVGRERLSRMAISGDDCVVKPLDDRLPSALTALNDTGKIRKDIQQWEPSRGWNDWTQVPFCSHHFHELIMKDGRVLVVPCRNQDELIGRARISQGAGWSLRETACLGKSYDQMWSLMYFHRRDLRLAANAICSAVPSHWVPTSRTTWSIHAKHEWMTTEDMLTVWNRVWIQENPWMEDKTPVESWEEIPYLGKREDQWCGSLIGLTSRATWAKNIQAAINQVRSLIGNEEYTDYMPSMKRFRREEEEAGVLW

SMILES: COc1ccc2cc(CN(CCO)C(=O)c3ccccc3F)c(=O)[nH]c2c1
- IC50 (Coagulation factor XII): > 50 µM (inactive)

SMILES: CC(C)[C@H](NC(=O)[C@H](C)N)C(=O)N[C@@H](C)C(=O)Nc1cccc2ccccc12
- IC50 [1]: 1.8 µM (active)
- IC50 [2]: 103 µM (active)

SMILES: O=C(CSc1nc2nn(-c3ccccc3)c(=O)c-2c2n1CCCCC2)c1ccc(O)c(O)c1
- IC50 [3]: > 100 µM (inactive)
- IC50 [4]: 9.04 µM (active)
- AC50 [5]: 2.62 µM (active)
- IC50 [6]: > 100 µM (inactive)

SMILES: CCCSc1nnc(-c2c[nH]c3ccccc23)n1C
- IC50 (Coagulation factor XII): > 50 µM (inactive)

SMILES: CC(/C=C1\SC(=S)N(C(C(=O)O)c2ccccc2)C1=O)=C\c1ccccc1 (stereo unspecified)
- IC50 (Aminopeptidase N): 12.4 µM (active)
- IC50 (SUMO-activating enzyme [7]): 26.8 µM (active)
- IC50 (Genome polyprotein): 38.5 µM (active)
- IC50 (SUMO-activating enzyme [8]): 10.9 µM (active)
- IC50 (Aspartyl aminopeptidase): > 73.5 µM (not active)
- IC50 (Procathepsin L): > 59.6 µM (not active)

SMILES: CCOc1ccc(CC(=O)NNC(=S)NCCc2ccccc2)cc1
- EC50 [9]: 13.1 µM (active)

SMILES: CN[C@@H](C)C(=O)N[C@H](C(=O)N[C@@H](C)C(=O)Nc1cccc2ncccc12)C(C)C
- IC50 [1]: > 100 µM (inactive)
- IC50 [2]: > 100 µM (inactive)

SMILES: c1ccc(-c2ccccc2OCCOCCN2CCc3ccccc3C2)cc1
- IC50 [10]: 2.55 µM (active)
- IC50 [11]: 3.85 µM (active)

SMILES: O=C(CN1CCCc2ccccc21)c1ccc(O)c(O)c1
- IC50 [12]: 39.3 µM (active)
- IC50 [13]: 4.87 µM (active)
